Data reported in patent publication US11607446B2, “Personalized immunotherapy against several neuronal and brain tumors” (Immatics Biotechnologies GmbH, priority 2013, dated 2023).

Test system: CD8+ T cells
Assay: In vitro immunogenicity of HLA-A*24 class I peptides: in vitro T-cell priming with aAPCs loaded with peptide/MHC complexes and anti-CD28 antibody, pMHC multimer readout
Format: cell-based, human
Conditions: given as a class symbol; for Donors: share of positive donors in the in vitro immunogenicity experiments; for Wells: share of positive wells in the in vitro immunogenicity experiments
Experimental: In order to obtain information regarding the immunogenicity of the TUMAPs of the present invention, we performed investigations using an in vitro T-cell priming assay based on repeated stimulations of CD8+ T cells with artificial antigen presenting cells (aAPCs) loaded with peptide/MHC complexes and anti-CD28 antibody.
Isolated CD8+ lymphocytes or PBMCs were incubated until use in T-cell medium (TCM) consisting of RPMI-Glutamax (Invitrogen, Karlsruhe, Germany) supplemented with 10% heat inactivated human AB serum (PAN-Biotech, Aidenbach, Germany), 100 U/ml Penicillin/100 μg/ml Streptomycin (Cambrex, Cologne, Germany), 1 mM sodium pyruvate (CC Pro, Oberdorla, Germany), 20 μg/ml Gentamycin (Cambrex). 2.5 ng/ml IL-7 (PromoCell, Heidelberg, Germany) and 10 U/ml IL-2 (Novartis Pharma, Nurnberg, Germany) were also added to the TCM at this step. Generation of pMHC/anti-CD28 coated beads, T-cell stimulations and readout was performed in a highly defined in vitro system using four different pMHC molecules per stimulation condition and 8 different pMHC molecules per readout condition. All pMHC complexes used for aAPC loading and cytometric readout were derived from UV-induced MHC ligand exchange with minor modifications. In order to determine the amount of pMHC monomer obtained by exchange we performed streptavidin-based sandwich ELISAs according to (Rodenko et al., 2006). The purified co-stimulatory mouse IgG2a anti human CD28 Ab 9.3 (Jung et al., 1987) was chemically biotinylated using Sulfo-N-hydroxysuccinimidobiotin as recommended by the manufacturer (Perbio, Bonn, Germany). Beads used were 5.6 μm diameter streptavidin coated polystyrene particles (Bangs Laboratories, Illinois, USA).
800.000 beads/200 μl were coated in 96-well plates in the presence of 4×12.5 ng different biotin-pMHC, washed and 600 ng biotin anti-CD28 were added subsequently in a volume of 200 μl. Stimulations were initiated in 96-well plates by co-incubating 1×10^6 CD8+ T cells with 2×10^5 washed coated beads in 200 μl TCM supplemented with 5 ng/ml IL-12 (PromoCell) for 3-4 days at 37° C. Half of the medium was then exchanged by fresh TCM supplemented with 80 U/ml IL-2 and incubating was continued for 3-4 days at 37° C. This stimulation cycle was performed for a total of three times, with 12 individual wells per condition For the pMHC multimer readout using 8 different pMHC molecules per condition, a two-dimensional combinatorial coding approach was used as previously described (Andersen et al., 2012) with minor modifications encompassing coupling to 5 different fluorochromes. Finally, multimeric analyses were performed by staining the cells with Live/dead near IR dye (Invitrogen, Karlsruhe, Germany), CD8-FITC antibody clone SK1 (BD, Heidelberg, Germany) and fluorescent pMHC multimers. For analysis, a BD LSRII SORP cytometer equipped with appropriate lasers and filters was used. Peptide specific cells were calculated as percentage of total CD8+ cells. Evaluation of multimeric analysis was done using the FlowJo software (Tree Star, Oregon, USA). In vitro priming of specific multimer+ CD8+ lymphocytes was detected by comparison to irrelevant control stimulations.
Exemplary flow cytometry results after TUMAP-specific multimer staining for two peptides of the invention are shown in FIG. 4 together with corresponding negative controls.

Substance | Donors | Wells
VYYFHPQYL (listed as Homo sapiens) [ST8SIA5-001] | ++++ (>70% = ++++) | ++ (20%-49 % = ++)
EYIRALQQL (listed as Homo sapiens) [ASCL1-001] | ++ (20%-49 % = ++) | + (<20% = +)
AYSDGHFLF (listed as Homo sapiens) [TENM4-001] | ++ (20%-49 % = ++) | + (<20% = +)
NROB1-001 (AYLKGTVLF; listed as Homo sapiens) | ++ (20%-49 % = ++) | + (<20% = +)
RYSDGLLRF (listed as Homo sapiens) [LZTS1-001] | ++ (20%-49 % = ++) | + (<20% = +)
SYNPLWLRI (listed as Homo sapiens) [ASPM-002] | +++ (50%-70% = +++) | + (<20% = +)
